Publication PMC5681660, “Reduced hepatitis B and D viral entry using clinically applied drugs as novel inhibitors of the bile acid transporter NTCP” (Scientific Reports, 2017)
Entries after “also recorded” stand apart in the source; their conditions may differ. Where two headings read alike, the source gives them in different places.

Experiments:
[1] = tested on: HBV; settings: for HBV infection in HepaRG cells (in words): HBeAg, HBsAg, HBcAg, concentration-dependent; for number of HBcAg positive stained cells: HepaRG cells, day 10 post HBV infection, 50 µM
[2] = tested on: U2OS cells; assay: WST-1 cytotoxicity, wildtype U2OS cells; settings: U2OS cells, 2 hours
[3] = molecular target: T1, human NTCP (Homo sapiens, UniProt Q14973); assay: Taurocholate uptake inhibition studies in U2OS-HA-hNTCP cells; type: cell-based; parameters: HA; expressed in transfected cells; settings: for concentration at which NTCP was inhibited in repeated measurements of TC-uptake and Myrcludex B binding: both TC uptake and Myrcludex B binding; for Taurocholate uptake into U2OS-HA-hNTCP cells (in words): increasing drug concentrations
T1 sequence (Q14973 1-349): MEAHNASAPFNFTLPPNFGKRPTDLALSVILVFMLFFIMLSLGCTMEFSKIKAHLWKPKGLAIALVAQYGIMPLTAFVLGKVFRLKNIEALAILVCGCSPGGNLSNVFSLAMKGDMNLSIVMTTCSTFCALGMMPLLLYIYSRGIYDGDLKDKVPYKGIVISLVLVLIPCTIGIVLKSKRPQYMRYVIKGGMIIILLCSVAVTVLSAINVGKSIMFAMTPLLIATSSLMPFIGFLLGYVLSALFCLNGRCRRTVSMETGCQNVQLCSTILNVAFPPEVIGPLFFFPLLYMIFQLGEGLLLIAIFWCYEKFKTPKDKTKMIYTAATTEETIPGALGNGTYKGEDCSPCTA
Description: (§1) For MDCK or MDCK-hASBT cells 70.000 cells/well were plated in 24-well plates, followed by 24 hours 10 mM sodium butyrate (Sigma-Aldrich) stimulation the next day. Cells were used in the inhibition studies 24 hours (U2OS cell lines) or 48 hours (MDCK cell lines) later. Inhibition studies with mNTCP transiently transfected cells were conducted 48–72 hours after transfection.
(§2) Medium was aspirated from the wells and cells were washed once with 250 µL uptake buffer. Subsequently, cells were pre-incubated with drug in 150 µL uptake buffer for 10 minutes at 37 °C. Taurocholate uptake was initiated by addition of 100 µL uptake buffer containing taurocholate (final concentration 10 µM TC spiked with tritium-labeled TC) and cells were incubated for 2 minutes at 37 °C. Subsequently, cells were washed 4 times with ice-cold PBS and lysed with 0.05% SDS in water. Radioactivity was measured by liquid scintillation counting.

[4] = molecular target: T1, human NTCP; assay: Myrcludex B-FITC binding by confocal microscopy in U2OS-HA-hNTCP cells; parameters: HA; expressed in transfected cells; settings: for Myrcludex B-FITC fluorescence / binding to U2OS-HA-hNTCP cells (in words): co-administration with increasing amounts of drug; for ≥50% loss of Myrcludex B binding to hNTCP (concentration): confocal microscopy, 0.2 µM Myrcludex B-FITC, drug 1, 10, 100 µM, concentration at which binding inhibited minimally 50%
Description: After 24 hours, medium was aspirated and cells were washed once with 300 µl Leibovitz’s L-15 Medium (Invitrogen). A 30 minute incubation period followed in which all cells were incubated with 0.2 µM Myrcludex B-FITC with or without drug (1, 10, 100 µM) and Hoechst (1/1000) in 300 µL Leibovitz’s L-15 Medium. Cells were washed twice with Leibovitz’s L-15 Medium and subsequently 400 µL Leibovitz’s L-15 Medium was added. Live cell fluorescent imaging was performed using a Leica SP8X-SMD confocal microscope with fully enclosed incubation at 37 °C. A 63x oil objective was used and images were captured while the cells were consecutively excited at 490 nm (FITC) 350 nm (Hoechst). ImageJ software (National Insititutes of Health, Bethesda, MD) was employed for data analysis.

[5] = molecular target: T2, human ASBT (Homo sapiens, UniProt Q12908); assay: Taurocholate uptake in MDCK-hASBT cells; type: cell-based; settings: compared with NTCP
T2 construct: expressed in transfected cells; gift of Paul Dawson; induced with sodium butyrate
T2 sequence (Q12908 1-348): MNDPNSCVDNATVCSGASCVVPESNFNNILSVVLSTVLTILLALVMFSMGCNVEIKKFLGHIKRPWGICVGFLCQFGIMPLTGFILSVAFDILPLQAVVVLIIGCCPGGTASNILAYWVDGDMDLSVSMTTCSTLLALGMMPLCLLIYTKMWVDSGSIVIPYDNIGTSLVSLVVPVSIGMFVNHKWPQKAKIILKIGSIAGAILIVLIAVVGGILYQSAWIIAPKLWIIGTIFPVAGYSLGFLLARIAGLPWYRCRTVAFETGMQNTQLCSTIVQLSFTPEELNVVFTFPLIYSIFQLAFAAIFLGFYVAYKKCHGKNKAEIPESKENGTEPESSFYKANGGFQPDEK
Description: (§3) U2OS and MDCK cells were grown in Dulbecco’s modified Eagle’s medium (DMEM, Sigma-Aldrich), supplemented with 10% FCS (Gibco), 1% L-glutamine (Lonza), and 1% penicillin/streptomycin (Lonza). […] Transient transfection of U2OS cells with mouse NTCP (mNTCP) was done with PEI reagent (Brunschwig, Basel, Switzerland). Shortly, U2OS cells were seeded one day prior to transfection in 24-well plates. On the day of transfection, 0.5 µg DNA was mixed with 100 µl unsupplemented DMEM and 3 µg/µl PEI. After 10–15 minute incubation at RT, 20 µl of the transfection mix was added to each 24-well. Transfected cells were used in further experiments 48–72 hours later. Cell lines were passaged twice a week at a confluence of 80%, and incubated in a humidified atmosphere of 37 °C + 5% CO2.
as §1, §2

[6] = molecular target: T1, human NTCP; assay: Screening taurocholate uptake assay (96-well, [14C]taurocholate, 10 µM drug); settings: for Ranking score: ranking over the functional and the binding screening assay; for B-score functional assay: screening taurocholate uptake, 10 µM drug
[7] = tested on: HDV; assay: HDV infection of HepaRG cells (HDAg immunofluorescence); type: cell-based, hepatitis delta virus; settings: HDAg positive cells, day 5; concentration-dependent
[8] = molecular target: T3, mouse NTCP (Mus musculus, UniProt O08705); assay: Taurocholate uptake in U2OS cells transiently transfected with mouse NTCP; type: cell-based; settings: at the calculated IC50 value for hNTCP
T3 construct: expressed in transfected cells; host or cells: U2OS (transient transfection, PEI)
T3 sequence (O08705 1-362): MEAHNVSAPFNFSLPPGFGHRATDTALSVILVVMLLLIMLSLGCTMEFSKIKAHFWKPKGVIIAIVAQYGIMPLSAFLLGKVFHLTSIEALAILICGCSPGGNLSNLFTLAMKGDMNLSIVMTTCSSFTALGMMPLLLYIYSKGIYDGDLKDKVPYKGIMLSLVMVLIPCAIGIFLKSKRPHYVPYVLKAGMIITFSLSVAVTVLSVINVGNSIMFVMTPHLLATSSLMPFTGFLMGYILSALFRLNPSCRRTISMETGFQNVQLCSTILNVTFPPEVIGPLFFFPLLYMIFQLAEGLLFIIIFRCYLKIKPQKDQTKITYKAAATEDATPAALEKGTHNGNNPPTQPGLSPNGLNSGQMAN
Description: as §3, §1, §2

[9] = tested on: U2OS-HA-hNTCP cells; settings: 2 hours
[10] = WST-1 cytotoxicity, wildtype U2OS cells; settings: human; for viability at 2 h, 1 µM / viability at 2 h, 10 µM / viability at 2 h, 100 µM: wildtype U2OS cells
[11] = in vitro; settings: human, U2OS-HA-hNTCP cells
[12] = HepaRG cells infected with HBV, supernatant day 7 to 10
[13] = U2OS-HA-hNTCP cells, concentrations 1 nM to 10 mM, read-out: IC50 for hNTCP-mediated TC uptake

## COc1cc(-c2ccc(N=Nc3ccc4c(S(=O)(=O)[O-])cc(S(=O)(=O)[O-])c(N)c4c3O)c(OC)c2)ccc1N=Nc1ccc2c(S(=O)(=O)[O-])cc(S(=O)(=O)[O-])c(N)c2c1O.[Na+].[Na+].[Na+].[Na+] [Chicago Sky Blue 6B]
[1]
  HBV infection in HepaRG cells (in words): reduced HBV/HDV infection
  number of HBcAg positive stained cells: severely reduced
[1]; [12]
  concentration effective in reducing HBeAg and HBsAg production: 17 µM
[2]; 1 µM
  cell viability by WST-1: 91.0 ± 9.3%
[2]; 10 µM
  cell viability by WST-1: 93.9 ± 5.4%
[2]; 100 µM
  cell viability by WST-1: 108.7 ± 5.6%
[3]; U2OS-HA-hNTCP cells
  concentration at which NTCP was inhibited in repeated measurements of TC-uptake and Myrcludex B binding: ≤ 10 µM
[3]; [13]
  IC50: 7.1 µM
[3]
  Taurocholate uptake into U2OS-HA-hNTCP cells (in words): reduced
[4]
  Myrcludex B-FITC fluorescence / binding to U2OS-HA-hNTCP cells (in words): reduced
  ≥50% loss of Myrcludex B binding to hNTCP (concentration): ≥1 µM
[5]
  inhibition of ASBT-mediated taurocholate uptake: inhibited ASBT to a similar extent as NTCP; also recorded: inhibit ASBT in a concentration-dependent fashion
[6]
  Ranking score: 17.4642
  B-score functional assay: -3.126
[7]
  HDV infection in HepaRG cells (in words): reduced HBV/HDV infection
[8]
  inhibition of mouse Ntcp-mediated taurocholate uptake compared with human NTCP: more capable of inhibiting mouse Ntcp; also recorded: more potent in inhibiting mouse NTCP
[9]; 1 µM
  cell viability by WST-1: 87.8 ± 7.2%
[9]; 10 µM
  cell viability by WST-1: 95.8 ± 5.9%
[9]; 100 µM
  cell viability by WST-1: 110.9 ± 9.4%

## O=C(O)c1ccccc1Nc1cccc(C(F)(F)F)c1 [Flufenamic Acid, Flufenamic acid]
[10]
  viability at 2 h, 1 µM: 109 ± 9.1%
  viability at 2 h, 10 µM: 108 ± 8.5%
  viability at 2 h, 100 µM: 104 ± 3.6%
[3]; [13]
  IC50: 10 µM
[3]
  Taurocholate uptake into U2OS-HA-hNTCP cells (in words): reduced in a dose-dependent fashion
[4]
  Myrcludex B-FITC fluorescence / binding to U2OS-HA-hNTCP cells (in words): reduced Myrcludex B-FITC fluorescence
  ≥50% loss of Myrcludex B binding to hNTCP (concentration): ≥100 µM
[4]; listed as Flufenamic acid
  ≥50% loss of Myrcludex B binding to hNTCP (concentration): ≤ 100 µM
[6]
  Ranking score: 48.7852
  B-score functional assay: -5.588
[11]
  viability at 2 h, 1 µM: 125 ± 15.2%
  viability at 2 h, 10 µM: 118 ± 9.6%
  viability at 2 h, 100 µM: 107 ± 9.6%
[8]
  inhibition of mouse Ntcp-mediated taurocholate uptake compared with human NTCP: more capable of inhibiting mouse Ntcp; also recorded: more potent in inhibiting mouse NTCP

## CN(CCOc1ccc(CC2SC(=O)NC2=O)cc1)c1ccccn1 (centres unmarked) [Rosiglitazone]
[1]
  HBV infection in HepaRG cells (in words): reduced HBV/HDV infection; also recorded: reduce
  number of HBcAg positive stained cells: severely reduced
[1]; [12]
  concentration effective in reducing HBsAg: ≥ 50 µM
[10]
  viability at 2 h, 1 µM: 104 ± 7.2%
  viability at 2 h, 10 µM: 107 ± 3.4%
  viability at 2 h, 100 µM: 104 ± 2.5%
[3]
  IC50: 5.1 µM
[5]
  inhibition of ASBT-mediated taurocholate uptake: inhibited ASBT less effectively and at higher concentrations than observed for NTCP; also recorded: inhibit ASBT in a concentration-dependent fashion
[11]
  viability at 2 h, 1 µM: 111 ± 4.4%
  viability at 2 h, 10 µM: 106 ± 4.5%
  viability at 2 h, 100 µM: 103 ± 6%
[7]
  HDV infection in HepaRG cells (in words): reduced HBV/HDV infection; also recorded: reduce
[8]
  inhibition of mouse Ntcp-mediated taurocholate uptake compared with human NTCP: more capable of inhibiting mouse Ntcp; also recorded: more potent in inhibiting mouse NTCP

## Cc1c(Cl)cccc1Nc1ccccc1C(=O)O [Tolfenamic Acid, Tolfenamic acid]
[10]
  viability at 1 µM: 94.7 ± 6.3%
  viability at 10 µM: 105 ± 11.7%
  viability at 100 µM: 82.1 ± 4.8%
[3]; [13]
  IC50: 12.5 µM
[3]
  Taurocholate uptake into U2OS-HA-hNTCP cells (in words): reduced in a dose-dependent fashion
[4]
  Myrcludex B-FITC fluorescence / binding to U2OS-HA-hNTCP cells (in words): reduced Myrcludex B-FITC fluorescence
  ≥50% loss of Myrcludex B binding to hNTCP (concentration): ≥100 µM
[4]; listed as tolfenamic acid
  ≥50% loss of Myrcludex B binding to hNTCP (concentration): ≤ 100 µM
[6]
  Ranking score: 28.5657
  B-score functional assay: -4.169
[11]
  viability at 2 h, 1 µM: 116 ± 10.3%
  viability at 2 h, 10 µM: 118 ± 13%
  viability at 2 h, 100 µM: 107 ± 12.4%
[8]
  inhibition of mouse Ntcp-mediated taurocholate uptake compared with human NTCP: inhibited similarly as human NTCP

## COc1cc(C(=O)NS(=O)(=O)c2ccccc2C)ccc1Cc1cn(C)c2ccc(NC(=O)OC3CCCC3)cc12 [Zafirlukast]
[1]
  HBV infection in HepaRG cells (in words): reduced HBV/HDV infection; also recorded: reduce
  number of HBcAg positive stained cells: severely reduced
[1]; [12]
  concentration effective in reducing HBeAg and HBsAg production: 17 µM
[10]
  viability at 1 µM: 87.7 ± 4.8%
  viability at 10 µM: 94.1 ± 2.7%
  viability at 100 µM: 73 ± 5.8%
[3]; U2OS-HA-hNTCP cells
  concentration at which NTCP was inhibited in repeated measurements of TC-uptake and Myrcludex B binding: ≤ 10 µM
[3]; [13]
  IC50: 6.5 µM
[3]
  Taurocholate uptake into U2OS-HA-hNTCP cells (in words): reduced
[4]; at 10 µM
  decreased Myrcludex B binding: more than 50%
[4]
  Myrcludex B-FITC fluorescence / binding to U2OS-HA-hNTCP cells (in words): reduced Myrcludex B-FITC fluorescence
  ≥50% loss of Myrcludex B binding to hNTCP (concentration): ≥1 µM
[5]
  inhibition of ASBT-mediated taurocholate uptake: inhibited ASBT less effectively and at higher concentrations than observed for NTCP; also recorded: inhibit ASBT in a concentration-dependent fashion
[6]
  Ranking score: 4.472
  B-score functional assay: -7.741
[11]
  viability at 2 h, 1 µM: 94.7 ± 12.7%
  viability at 2 h, 10 µM: 87.1 ± 12.3%
  viability at 2 h, 100 µM: 77.7 ± 8%
[7]
  HDV infection in HepaRG cells (in words): reduced HBV/HDV infection; also recorded: reduce
[8]
  inhibition of mouse Ntcp-mediated taurocholate uptake compared with human NTCP: inhibited similarly as human NTCP
